Patent EP3929178B1, “CRYSTAL FORM OF VALNEMULIN HYDROCHLORIDE HYDRATE, PREPARATION METHOD THEREFOR, AND PHARMACEUTICAL COMPOSITION CONTAINING CRYSTAL FORM” (Hubei Longxiang Pharmaceutical Co., Ltd., priority 2019, dated 2020)
Structures can show the parent of a compound that is named as a salt. Where two headings read alike, the source gives them in different places. Values belong to the compound of their own block, whether it stands above or below them.

Assays:
Bulk density comparison = assay type: physicochemical
Source text: (§1) The hydrate crystal and the amorphous substance and the crystal form of patent CN104876841B were compared in terms of bulk density, solubility, ect, as shown in the following table. Table 2 Physicochemical properties comparison of the valnemulin hydrochloride hydrate, the amorphous substance and the Comparative Example

[1] = Influencing factor (stability) experiments on crystal forms under temperature and humidity; assay type: physicochemical; settings: for content before placement: before placement (baseline of the stability study)
Experimental: Conditions for purity detection by High Performance Liquid Chromatography (HPLC): octadecylsilane-bonded silica gel was used as filler (150 mm×4.6 mm, 3 µm); mobile phase A was phosphate buffer (pH 2.5); mobile phase B was phosphate buffer (pH 2.5)-acetonitrile (25:75); the flow rate was 1.5 ml per minute; the column temperature was 50 °C; and the detection wavelength was 200 nm. Linear gradient elution was performed according to the following table.
Table 1 Comparative study on stability of valnemulin hydrochloride hydrate, amorphous substance and the comparative crystal form

[2] = Hygroscopicity experiments; assay type: physicochemical
Source text: as §1, with “Table 1 Comparative study on stability of valnemulin hydrochloride hydrate, amorphous substance and the comparative crystal form The” for “The”

[3] = Loss on granulation of aqueous solutions of amorphous product; assay type: physicochemical; settings: granulated at 75 °C
Source text: For solid drugs, different solid forms will have an important impact on physical and chemical properties such as stability, solubility, dissolution rate, bulk density and fluidity, resulting in different efficacy and bioavailability during use. Therefore, for solid pharmaceutical products, the development of different solid forms is more conducive to choosing a suitable crystal form according to the characteristics of the pharmaceutical preparation. For valnemulin hydrochloride products, compared with crystalline products, the amorphous products have problems such as poor stability, easy hygroscopicity, poor appearance, poor fluidity, and difficult storage. At the same time, aqueous solutions of amorphous valnemulin hydrochloride products are unstable during preparation process. Experiments have shown that 11.6% loss is caused when granulated at 75 °C. Therefore, there is an urgent need to develop a stable valnemulin hydrochloride crystal product to meet market demand for veterinary drugs. […] There are very few reports on the crystal form of valnemulin hydrochloride and preparation method thereof.

[4] = reported for CN108892629A; cited from earlier work
[5] = compared with the original amorphous product
[6] = 25 °C, 90% relative humidity, placed for 30 days, listed as The crystal form of valnemulin hydrochloride hydrate (Example 1), hydrochloride hydrate
[7] = 40 °C, 75% relative humidity, placed for 30 days
[8] = 40 °C, 75% relative humidity, placed for 30 days, listed as The crystal form of valnemulin hydrochloride hydrate (Example 1), hydrochloride hydrate
[9] = 60 °C, 75% relative humidity, placed for 30 days
[10] = 60 °C, 75% relative humidity, placed for 30 days, listed as The crystal form of valnemulin hydrochloride hydrate (Example 1), hydrochloride hydrate
[11] = 60 °C, placed in normal humidity for 30 days, listed as The crystal form of valnemulin hydrochloride hydrate (Example 1), hydrochloride hydrate
[12] = 25 °C, 90% relative humidity, placed for 30 days, hydrochloride
[13] = 40 °C, 75% relative humidity, placed for 30 days, hydrochloride
[14] = 60 °C, 75% relative humidity, placed for 30 days, hydrochloride
[15] = 60 °C, placed in normal humidity for 30 days, hydrochloride

- Bulk density (Bulk density comparison; [5]): large bulk density
- Bulk density (Bulk density comparison; listed as The crystal form of valnemulin hydrochloride hydrate (Example 1), hydrochloride hydrate): 0.596 g/mL
- Appearance change [1, 6]: White solid
- Content after placement (%) [1, 6]: 99.23%
- Crystal form change [1, 6]: No change
- Crystal form change [1, 7]: No change
- Appearance change [1, 8]: White solid
- Content after placement (%) [1, 8]: 99.20%
- Crystal form change [1, 9]: No change
- Appearance change [1, 10]: White solid
- Content after placement (%) [1, 10]: 98.78%
- Appearance change [1, 11]: White solid
- Content after placement (%) [1, 11]: 98.47%
- Crystal form change [1, 11]: No
- content before placement ([1]; hydrochloride hydrate): 99.25%
- stability [1, 5]: enhanced stability
- stability ([1]; summary in words of Table 1): stable
- With or without hygroscopicity [2, 6]: Without hygroscopic ity
- With or without hygroscopicity [2, 8]: Without hygroscopic ity
- With or without hygroscopicity [2, 10]: Without hygroscopic ity
- With or without hygroscopicity [2, 11]: Without
- hygroscopicity ([2]; Table 2, listed as The crystal form of valnemulin hydrochloride hydrate (Example 1), hydrochloride hydrate): 0%
- hygroscopicity [2, 5]: no hygroscopicity
Structure (SMILES): C=C[C@]1(C)C[C@@H](OC(=O)CSC(C)(C)CNC(=O)[C@H](N)C(C)C)[C@]2(C)[C@H](C)CC[C@]3(CCC(=O)[C@H]32)[C@@H](C)[C@@H]1O [Example 1, valnemulin hydrochloride hydrate]

- Bulk density (Bulk density comparison; hydrochloride): 0.338 g/mL
- Appearance change [1, 12]: Yellow transparent viscous solid
- Content after placement (%) [1, 12]: 94.56%
- Appearance change [1, 13]: Yellow transparent viscous solid
- Content after placement (%) [1, 13]: 90.82%
- Appearance change [1, 14]: Yellow
- Content after placement (%) [1, 14]: 86.12%
- Appearance change [1, 15]: Yellow solid
- Content after placement (%) [1, 15]: 89.18%
- content before placement ([1]; listed as valnemulin hydrochloride amorphous substance, hydrochloride): 97.50%
- loss when granulated [3]: 11.6%
- With or without hygroscopicity [2, 12]: Severe hygroscopic ity
- With or without hygroscopicity [2, 13]: Severe hygroscopic ity
- With or without hygroscopicity [2, 14]: Severe hygroscopic ity
- With or without hygroscopicity [2, 15]: Hygroscopi city
- hygroscopicity ([2]; Table 2, hydrochloride): 8.86%
- hygroscopicity ([2]; summary in words of Table 1, hydrochloride): absorbed moisture severely
Structure (SMILES): C=C[C@]1(C)C[C@@H](OC(=O)CSC(C)(C)CNC(=O)[C@H](N)C(C)C)[C@]2(C)[C@H](C)CC[C@]3(CCC(=O)[C@H]32)[C@@H](C)[C@@H]1O [The amorphous substance of valnemulin hydrochloride]

- Bulk density (Bulk density comparison; hydrochloride): 0.636 g/mL
- Appearance change [1, 12]: White solid
- Content after placement (%) [1, 12]: 99.21%
- Crystal form change [1, 12]: Slight change
- Crystal form change [1, 7]: No change
- Appearance change [1, 13]: White solid
- Content after placement (%) [1, 13]: 99.18%
- Crystal form change [1, 9]: No change
- Appearance change [1, 14]: Light yellow solid
- Content after placement (%) [1, 14]: 98.69%
- Appearance change [1, 15]: Light yellow solid
- Content after placement (%) [1, 15]: 98.39%
- Crystal form change [1, 15]: No change
- With or without hygroscopicity [2, 12]: Slightly
- With or without hygroscopicity [2, 13]: Slightly
- With or without hygroscopicity [2, 14]: Slightly
- With or without hygroscopicity [2, 15]: Slightly
- hygroscopicity ([2]; Table 2, hydrochloride): 1.015%
- hygroscopicity ([2]; summary in words of Table 1, listed as The crystal form of patent CN104876841B, hydrochloride): slightly hygroscopic
Structure (SMILES): C=C[C@]1(C)C[C@@H](OC(=O)CSC(C)(C)CNC(=O)[C@H](N)C(C)C)[C@]2(C)[C@H](C)CC[C@]3(CCC(=O)[C@H]32)[C@@H](C)[C@@H]1O [The crystal form of Comparative Example, valnemulin hydrochloride]

Structure (SMILES): C=C[C@]1(C)C[C@@H](OC(=O)CSC(C)(C)CNC(=O)[C@H](N)C(C)C)[C@]2(C)[C@H](C)CC[C@]3(CCC(=O)[C@H]32)[C@@H](C)[C@@H]1O [solvent-free compound, valnemulin hydrochloride]
- Bulk density [4]: 0.305 g/mL
